Test results as given in the NIST ThermoML archive (doi:10.1016/j.jct.2009.07.002).

Assay: isobaric coefficient of expansion
Conditions: Liquid, DSC with Pressure Shift

CCCCCCCO [heptan-1-ol]
isobaric coefficient of expansion
Conditions | 278.15 K | 288.15 K | 298.15 K | 308.15 K | 318.15 K | 328.15 K | 338.15 K | 348.15 K
5000 kPa | 0.000799 1/K | 0.000815 1/K | 0.000831 1/K | 0.000854 1/K | 0.000878 1/K | 0.000903 1/K | 0.000928 1/K | 0.000956 1/K
10000 kPa | 0.000779 1/K | 0.000798 1/K | 0.000811 1/K | 0.000832 1/K | 0.000854 1/K | 0.000876 1/K | 0.000901 1/K | 0.000927 1/K
15000 kPa | 0.000767 1/K | 0.000784 1/K | 0.000795 1/K | 0.000813 1/K | 0.000833 1/K | 0.000849 1/K | 0.000875 1/K | 0.000899 1/K
20000 kPa | 0.000754 1/K | 0.000769 1/K | 0.000779 1/K | 0.000796 1/K | 0.000814 1/K | 0.000831 1/K | 0.000851 1/K | 0.000872 1/K
25000 kPa | 0.000741 1/K | 0.000757 1/K | 0.000762 1/K | 0.000776 1/K | 0.000792 1/K | 0.000811 1/K | 0.00083 1/K | 0.000848 1/K
30000 kPa | 0.000726 1/K | 0.000743 1/K | 0.000747 1/K | 0.000761 1/K | 0.000775 1/K | 0.000792 1/K | 0.000809 1/K | 0.000826 1/K
35000 kPa | 0.000713 1/K | 0.00073 1/K | 0.000734 1/K | 0.000747 1/K | 0.00076 1/K | 0.000775 1/K | 0.000791 1/K | 0.000806 1/K
40000 kPa | 0.000697 1/K | 0.000716 1/K | 0.000716 1/K | 0.00073 1/K | 0.000742 1/K | 0.000756 1/K | 0.000769 1/K | 0.000786 1/K
45000 kPa | 0.00069 1/K | 0.000708 1/K | 0.000709 1/K | 0.000717 1/K | 0.00073 1/K | 0.00074 1/K | 0.000754 1/K | 0.000768 1/K
50000 kPa | 0.000682 1/K | 0.000694 1/K | 0.000695 1/K | 0.000705 1/K | 0.000714 1/K | 0.000726 1/K | 0.000741 1/K | 0.000752 1/K
55000 kPa | 0.000673 1/K | 0.000686 1/K | 0.000684 1/K | 0.000693 1/K | 0.000703 1/K | 0.000715 1/K | 0.000725 1/K | 0.000737 1/K
